Data as given in patent US9187480B2, “Peripherally restricted diphenyl purine derivatives” (RESEARCH TRIANGLE INSTITUTE, priority 2012, dated 2015).

How the values were obtained:
[1] = target: CB2 (Homo sapiens (Human), UniProt P34972); test: Displacement of [3H]CP55940 in membranes of CHO-K1 cells over-expressing CB2; assay type: binding; details: radioligand [3H]CP55940, CHO-K1 membranes; read-out: Ki (nM) v. [3H]CP55940 at CB2
[2] = target: T1, CB1 (Homo sapiens (Human), UniProt P21554); test: Displacement of [3H]CP55940 in membranes of CHO-K1 cells over-expressing CB1;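 on all read-outs here: reported values are averages of 3-6 independent measurements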; details: for Binding Selectivity using CP55940 Displacement: CB1 versus CB2; for Ki: read-out: Ki (nM) v. [3H]CP55940 at CB1, radioligand [3H]CP55940, CHO-K1 membranes
Procedure: Further characterization of select compounds was performed using radioligand displacement of [3H]1 and equilibrium dissociation constant (Ki) values were determined. Selectivity of these compounds at CB1 versus CB2 was also determined by obtaining Ki values at either receptor using displacement of [3H]CP55940 in membranes of CHO-K1 cells over-expressing either receptor. Data reported are average values from 3-6 measurements.
Selectivity against the CB2 receptor was determined by comparing the compound displacement of radiolabeled CP55940, which is a cannabinoid known to act as a full agonist at both CB1 and CB2 receptors.

[3] = target: T1, CB1; test: CB1 activated Gαq16-coupled intracellular calcium mobilization assay in CHO-K1 cells; assay type: cell-based; details: apparent affinity (Ke)
[4] = test system: MDCK-MDR; test: MDCK-MDR transport (apical to basal); assay type: in vitro ADME
[5] = Brain penetration / plasma and brain levels after oral dosing in SD rats; assay type: in vivo, Sprague-Dawley (SD) rats; details: oral 10 mg/kg; for Kp at 1 h / Kp at 2 h / Kp at 4 h / Kp at 24 h / Kp: Sprague-Dawley, rat, brain and plasma; for Kp: range over sampling times, read-out: brain to plasma ratios; for Brain conc.: unperfused brain
Procedure: However, unlike otenabant, this sulfonamide is a peripherally selective compound. […] Select compounds were chosen for study to determine penetration into the CNS. Selected compounds were dosed orally at 10 mg/kg in SD rats. Brain and plasma samples were collected at 1, 2, 4, and 24 hours post dose and samples were analyzed by MS (Table 2, below). Since unperfused brains were used and the blood volume in unperfused brains is approximately 4%, a brain to plasma level of ≦0.04 represents no discernible penetration into the CNS.

T1 sequence (P21554 whole entry): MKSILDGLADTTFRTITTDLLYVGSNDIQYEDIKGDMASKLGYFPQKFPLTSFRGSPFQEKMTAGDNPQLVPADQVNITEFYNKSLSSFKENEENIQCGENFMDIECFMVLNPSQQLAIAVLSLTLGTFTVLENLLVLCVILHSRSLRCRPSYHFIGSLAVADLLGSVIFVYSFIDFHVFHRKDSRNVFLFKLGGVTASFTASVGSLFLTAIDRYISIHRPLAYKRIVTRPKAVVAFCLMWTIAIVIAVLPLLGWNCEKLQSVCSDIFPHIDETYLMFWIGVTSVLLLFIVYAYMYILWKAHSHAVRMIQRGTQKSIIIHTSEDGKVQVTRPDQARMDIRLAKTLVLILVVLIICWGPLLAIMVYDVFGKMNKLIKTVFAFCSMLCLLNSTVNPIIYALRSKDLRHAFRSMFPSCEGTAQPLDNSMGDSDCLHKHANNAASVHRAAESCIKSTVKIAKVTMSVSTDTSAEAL
Sequence of CB2 (P34972 whole entry): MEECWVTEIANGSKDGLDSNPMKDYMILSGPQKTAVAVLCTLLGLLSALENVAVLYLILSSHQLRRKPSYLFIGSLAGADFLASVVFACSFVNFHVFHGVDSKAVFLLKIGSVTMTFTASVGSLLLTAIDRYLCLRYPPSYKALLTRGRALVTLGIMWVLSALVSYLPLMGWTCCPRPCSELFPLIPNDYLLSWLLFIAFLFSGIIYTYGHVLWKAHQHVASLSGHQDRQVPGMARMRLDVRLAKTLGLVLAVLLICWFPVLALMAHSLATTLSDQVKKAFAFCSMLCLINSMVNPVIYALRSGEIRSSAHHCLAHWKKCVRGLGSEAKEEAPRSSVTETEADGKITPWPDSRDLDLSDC

| SMILES | Ki [1] | Binding Selectivity using CP55940 Displacement [2] | Ki [2] | Ke (nM) at CB1 [3] | other results |
| --- | --- | --- | --- | --- | --- |
| CC(C)(C)OC(=O)N1CCC(Nc2ncnc3c2nc(-c2ccccc2Cl)n3-c2ccc(Cl)cc2)CC1 | 13600 nM | 568.8 | 23.9 nM | 92 nM | – |
| O=C(NC1CCN(c2ncnc3c2nc(-c2ccccc2Cl)n3-c2ccc(Cl)cc2)CC1)C1CCCC1 | 60.2 nM | 39 | 1.54 nM | 0.89 nM | – |
| O=S(=O)(NC1CCN(c2ncnc3c2nc(-c2ccccc2Cl)n3-c2ccc(Cl)cc2)CC1)C(F)(F)F | 4500 nM | 738 | 6.1 nM | 1.05 nM | – |
| CC(C)(C)OC(=O)NC1(c2ccccc2)CCN(c2ncnc3c2nc(-c2ccccc2Cl)n3-c2ccc(Cl)cc2)CC1 | 13900 nM | 1959 | 7.12 nM | 3.93 nM | % MDCK-MDR transport (Apical to Basal) [4]: <1% |
| CCCCNC(=O)N1CCC(Nc2ncnc3c2nc(-c2ccccc2Cl)n3-c2ccc(Cl)cc2)CC1 | – | – | – | 71 nM | – |
| CC(C)CC(=O)NC1CCN(c2ncnc3c2nc(-c2ccccc2Cl)n3-c2ccc(Cl)cc2)CC1 | 89.5 nM | 22 | 4.01 nM | 5.4 nM | – |
| O=C(NC1CCN(c2ncnc3c2nc(-c2ccccc2Cl)n3-c2ccc(Cl)cc2)CC1)c1ccccc1 | 10600 nM | – | – | – | – |
| NS(=O)(=O)NC1CCN(c2ncnc3c2nc(-c2ccccc2Cl)n3-c2ccc(Cl)cc2)CC1 | – | – | – | 2768 nM | – |
| O=C(NC1CCN(c2ncnc3c2nc(-c2ccccc2Cl)n3-c2ccc(Cl)cc2)CC1)C(F)(F)F | – | – | – | 3.19 nM | – |
| CC(C)(C)NC(=O)NC1(c2ccccc2)CCN(c2ncnc3c2nc(-c2ccccc2Cl)n3-c2ccc(Cl)cc2)CC1 | 20000 nM | 784 | 25.5 nM | 19.17 nM | % MDCK-MDR transport (Apical to Basal) [4]: <1% |
| COC(=O)NC1CCN(c2ncnc3c2nc(-c2ccccc2Cl)n3-c2ccc(Cl)cc2)CC1 | – | – | – | 17 nM | – |
| O=S(=O)(NC1CCN(c2ncnc3c2nc(-c2ccccc2Cl)n3-c2ccc(Cl)cc2)CC1)c1ccccc1 | – | – | – | 0.26 nM | – |
| CCCCNC(=O)NC1(c2ccccc2)CCN(c2ncnc3c2nc(-c2ccccc2Cl)n3-c2ccc(Cl)cc2)CC1 | – | – | – | 62 nM | – |
| CCCCC(=O)NC1CCN(c2ncnc3c2nc(-c2ccccc2Cl)n3-c2ccc(Cl)cc2)CC1 [drawing 78] | 1050 nM | 54 | 19.5 nM | 4.9 nM | – |
| NC1CCN(c2ncnc3c2nc(-c2ccccc2Cl)n3-c2ccc(Cl)cc2)CC1 | – | – | – | 316 nM | – |
| CCOC(=O)CNC(=O)NC1(c2ccccc2)CCN(c2ncnc3c2nc(-c2ccccc2Cl)n3-c2ccc(Cl)cc2)CC1 | – | – | – | 171 nM | – |
| CCOC(=O)NC1CCN(c2ncnc3c2nc(-c2ccccc2Cl)n3-c2ccc(Cl)cc2)CC1 [drawing 62] | 426 nM | 119 | 3.57 nM | 2.3 nM | – |
| CC(=O)N1CCCC(Nc2ncnc3c2nc(-c2ccccc2Cl)n3-c2ccc(Cl)cc2)C1 (stereo not drawn) | – | – | – | 4449 nM | – |
| CC(C)CCC(=O)NC1CCN(c2ncnc3c2nc(-c2ccccc2Cl)n3-c2ccc(Cl)cc2)CC1 | 215 nM | 81 | 2.67 nM | 7.4 nM | – |
| CC(=O)N1CCC(Nc2ncnc3c2nc(-c2ccccc2Cl)n3-c2ccc(Cl)cc2)CC1 | – | – | – | 19595 nM | – |
| NC1(c2ccccc2)CCN(c2ncnc3c2nc(-c2ccccc2Cl)n3-c2ccc(Cl)cc2)CC1 | 1660 nM | 151 | 11 nM | 15.89 nM | % MDCK-MDR transport (Apical to Basal) [4]: <1% |
| Clc1ccc(-n2c(-c3ccccc3Cl)nc3c(NC4CCNCC4)ncnc32)cc1 | – | – | – | Not active | – |
| O=C(CCN1CCCCC1)NC1CCN(c2ncnc3c2nc(-c2ccccc2Cl)n3-c2ccc(Cl)cc2)CC1 | – | – | – | 789 nM | – |
| CC(C)(C)NC(=O)C1(c2ccccc2)CCN(c2ncnc3c2nc(-c2ccccc2Cl)n3-c2ccc(Cl)cc2)CC1 | 20000 nM | 4902 | 4.08 nM | 2.2 nM | % MDCK-MDR transport (Apical to Basal) [4]: <1% |

| SMILES | Ki [1] | Binding Selectivity using CP55940 Displacement [2] | Ki [2] | Ke (nM) at CB1 [3] | other results |
| --- | --- | --- | --- | --- | --- |
| CCCCNC(=O)NC1CCN(c2ncnc3c2nc(-c2ccccc2Cl)n3-c2ccc(Cl)cc2)CC1 | – | – | – | 49 nM | – |
| O=C(CC1CCCCC1)NC1CCN(c2ncnc3c2nc(-c2ccccc2Cl)n3-c2ccc(Cl)cc2)CC1 | 2360 nM | – | 1.93 nM | 2.1 nM | – |
| CCCCC(=O)NC1CCN(c2ncnc3c2nc(-c2ccccc2Cl)n3-c2ccc(Cl)cc2)CC1 [drawing 85] | – | – | – | – | Kp at 1 h ([5]; 1 hour post dose): 0.03; Kp at 2 h ([5]; 2 hours post dose): 0.03; Kp at 4 h ([5]; 4 hours post dose): 0.07; Kp at 24 h ([5]; 24 hours post dose): 0.13; Kp [5]: 0.03 to 0.13; Plasma conc. ([5]; 1 hour post dose): 1430 ng/mL; Plasma conc. ([5]; 2 hours post dose): 2780 ng/mL; Plasma conc. ([5]; 4 hours post dose): 1680 ng/mL; Plasma conc. ([5]; 24 hours post dose): 18.7 ng/mL; Brain conc. ([5]; 1 hour post dose): 43.6 ng/mL; Brain conc. ([5]; 2 hours post dose): 72.4 ng/mL; Brain conc. ([5]; 4 hours post dose): 119 ng/mL; Brain conc. ([5]; 24 hours post dose): 2.36 ng/mL |
| CS(=O)(=O)N1CCC(Nc2ncnc3c2nc(-c2ccccc2Cl)n3-c2ccc(Cl)cc2)CC1 | – | – | – | 1645 nM | – |
| CCCNC(=O)NC1(c2ccccc2)CCN(c2ncnc3c2nc(-c2ccccc2Cl)n3-c2ccc(Cl)cc2)CC1 | – | – | – | 100 nM | – |
| CS(=O)(=O)NC1CCN(c2ncnc3c2nc(-c2ccccc2Cl)n3-c2ccc(Cl)cc2)CC1 | – | – | – | 71 nM | – |
| CCOC(=O)NC1CCN(c2ncnc3c2nc(-c2ccccc2Cl)n3-c2ccc(Cl)cc2)CC1 [drawing 84] | – | – | – | – | Kp at 1 h ([5]; 1 hour post dose): 0.28; Kp at 2 h ([5]; 2 hours post dose): 0.14; Kp at 4 h ([5]; 4 hours post dose): 0.16; Kp at 24 h ([5]; 24 hours post dose): 0.46; Kp [5]: 0.14 to 0.46; Plasma conc. ([5]; 1 hour post dose): 740 ng/mL; Plasma conc. ([5]; 2 hours post dose): 971 ng/mL; Plasma conc. ([5]; 4 hours post dose): 1750 ng/mL; Plasma conc. ([5]; 24 hours post dose): 72.6 ng/mL; Brain conc. ([5]; 1 hour post dose): 207 ng/mL; Brain conc. ([5]; 2 hours post dose): 132 ng/mL; Brain conc. ([5]; 4 hours post dose): 276 ng/mL; Brain conc. ([5]; 24 hours post dose): 33.5 ng/mL |
| CC(=O)NC1(c2ccccc2)CCN(c2ncnc3c2nc(-c2ccccc2Cl)n3-c2ccc(Cl)cc2)CC1 | 726 nM | 121 | 6 nM | 10.31 nM | % MDCK-MDR transport (Apical to Basal) [4]: 6% |
| CCNC(=O)N1CCCC(Nc2ncnc3c2nc(-c2ccccc2Cl)n3-c2ccc(Cl)cc2)C1 (stereo not drawn) | – | – | – | 1153 nM | – |
| CCNC(=O)NC1CCN(c2ncnc3c2nc(-c2ccccc2Cl)n3-c2ccc(Cl)cc2)CC1 | – | – | – | 149 nM | – |
| CC(C)NC(=O)N1CCC(Nc2ncnc3c2nc(-c2ccccc2Cl)n3-c2ccc(Cl)cc2)CC1 | – | – | – | 495 nM | – |
| CC(C)NC(=O)NC1CCN(c2ncnc3c2nc(-c2ccccc2Cl)n3-c2ccc(Cl)cc2)CC1 | – | – | – | 133 nM | – |
| CCCNC(=O)NC1CCN(c2ncnc3c2nc(-c2ccccc2Cl)n3-c2ccc(Cl)cc2)CC1 | – | – | – | 132 nM | – |
| O=C(NC1CCCCC1)NC1(c2ccccc2)CCN(c2ncnc3c2nc(-c2ccccc2Cl)n3-c2ccc(Cl)cc2)CC1 | – | – | – | 199 nM | – |
| CCCNC(=O)N1CCC(Nc2ncnc3c2nc(-c2ccccc2Cl)n3-c2ccc(Cl)cc2)CC1 | – | – | – | 1964 nM | – |
| CCNC(=O)NC1(c2ccccc2)CCN(c2ncnc3c2nc(-c2ccccc2Cl)n3-c2ccc(Cl)cc2)CC1 | 4640 nM | 24 | 195 nM | 443 nM | – |
| CCNC(=O)N1CCC(Nc2ncnc3c2nc(-c2ccccc2Cl)n3-c2ccc(Cl)cc2)CC1 | – | – | – | 1148 nM | – |
| CC(C)NC(=O)NC1(c2ccccc2)CCN(c2ncnc3c2nc(-c2ccccc2Cl)n3-c2ccc(Cl)cc2)CC1 | – | – | – | 46 nM | – |
| O=C(CC1CCCC1)NC1CCN(c2ncnc3c2nc(-c2ccccc2Cl)n3-c2ccc(Cl)cc2)CC1 | 569 nM | 282 | 2.02 nM | 2.9 nM | – |
| O=C(NC1CCN(c2ncnc3c2nc(-c2ccccc2Cl)n3-c2ccc(Cl)cc2)CC1)C1CCCCC1 | 835 nM | 249 | 3.35 nM | 3.3 nM | – |
| CN(C)CC(=O)NC1CCN(c2ncnc3c2nc(-c2ccccc2Cl)n3-c2ccc(Cl)cc2)CC1 | – | – | – | 140 nM | – |
| CC(=O)NC1CCN(c2ncnc3c2nc(-c2ccccc2Cl)n3-c2ccc(Cl)cc2)CC1 | – | – | – | 631 nM | – |
| CC(C)(C)OC(=O)NC1CCN(c2ncnc3c2nc(-c2ccccc2Cl)n3-c2ccc(Cl)cc2)CC1 | – | – | – | 11 nM | – |
